Where a SMILES comes first, the peptide text is derived from it. [ ]: non-standard residue; d: D form. The star is where a group is joined. Sta = CC(C)C[C@H](N)[C@@H](O)CC(=O)O; Isovaleryl = CC(C)CC(=O)*
Key:
[1] = target: retroviral proteases associated with human T-cell leukemia virus (Human T-cell leukemia virus 1, UniProt P10274); details: cited from earlier work
[2] = tested on: retroviral proteases associated with bovine leukemia virus; details: cited from earlier work
[3] = target: retroviral proteases associated with Moloney murine leukemia virus (Moloney murine leukemia virus, UniProt P03355); details: cited from earlier work
HIV protease = details: substrate of HIV protease; MENDT buffer pH 6.0, 37°C
Protocol: The enzyme used to assay the peptide of this invention was produced in this manner and purified from the cell pellet as follows. The E. coli cell pellet was resuspended in a buffer consisting of 50 mM Tris-­HCl, pH 7.5; 1.0 mM each DTT, EDTA and PMSF (phenylmethylsulfonyl fluoride). The cells were lysed by sonication and insoluble material was removed by centrifugation at 15,000 x g av, for 15 min. The clarified supernatant was then brought to 40% of saturation with ammonium sulfate This suspension was stirred at room temperature for 30 min. and then centrifuged as above. […] The effluent of the column was monitored at 280 nm and 1 min. fractions collected.
Initial rate data for oligopeptides were determined at pH 6.0, 37°C. […] Samples were centrifuged at 17,000 rpm for 5 min., and the peptide substrates and products were separated and quantified (by peak integration) by reverse phase HPLC. Initial rates were determined as (mM peptide product formed)/min based on the percentage of conversion of substrate to product for a given concentration of substrate. […] Kinetic constants (Michaelis constants, maximal velocities) were determined by fitting initial rate data to the Michaelis-Menten equation (v = Vmax(S)/(Km + (S))) using the Fortran program of Cleland (W. W. Cleland, Adv. Enzymol. 29, 1, (1967)). […]

Chain of retroviral proteases associated with Moloney murine leukemia virus (P03355 535-659): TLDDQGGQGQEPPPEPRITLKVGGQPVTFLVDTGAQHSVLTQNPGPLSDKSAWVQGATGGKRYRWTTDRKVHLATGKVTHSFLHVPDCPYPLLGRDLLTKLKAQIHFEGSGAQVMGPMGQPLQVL
Chain of retroviral proteases associated with human T-cell leukemia virus (P10274 450-574): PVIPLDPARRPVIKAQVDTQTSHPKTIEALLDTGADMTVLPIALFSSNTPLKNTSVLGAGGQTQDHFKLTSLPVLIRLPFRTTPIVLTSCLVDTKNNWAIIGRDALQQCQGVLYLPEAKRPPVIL

Row | Compound | inhibitor of the retroviral protease [1] | inhibitor of the retroviral protease [2] | inhibitor of the retroviral protease [3] | Km (HIV protease)
1 | CC(C)CC(=O)N[C@H](C(=O)N[C@H](C(=O)N[C@@H](CC(C)C)[C@@H](O)CC(=O)N[C@@H](C)C(=O)N[C@@H](CC(C)C)[C@@H](O)CC(=O)O)C(C)C)C(C)C [pepstatin] (Isovaleryl-VV[Sta]A[Sta]-OH) | weak inhibitor | weak inhibitor | weak inhibitor | 
2 | N-acetyl-L-arginyl-L-alanyl-L-seryl-L-glutaminyl-L-asparaginyl-L-tyrosyl-L-prolyl-L-valyl-L-valinamide |  |  |  | 7 mM
